Data set [1] is described as follows: Photosensitizing ability of the compound in PBS at pH 5.2 in presence of HCl assessed as singlet oxygen production by measuring relative degradation rate of DPBF at 411 nm under photoirradiation with 90 mW/cm2 light by absorbance based assay. It counts as functional.
The nature of data set [2]: Stability of compound in emulsified PBS buffer under dark condition. It counts as physicochemical.
The nature of data set [3]: Dark toxicity in mouse B16-F10 cells incubated for 3 hrs by CCK-8 assay. It counts as cell-based. On the technique in general: Tetrazolium dyes change colour on reduction, which living cells bring about.
A short description of data set [4]: Dark toxicity in human HepG2 cells incubated for 3 hrs by CCK-8 assay. It counts as cell-based.
Data set [5] in a line: Ratio of relative degradation rate of DPBF in PBS at pH 5.2 in presence of HCl to relative degradation rate of DPBF in PBS at pH 7. It counts as physicochemical. As to conditions: buffer.
A short description of data set [6]: Stability of compound in CH3CN under dark condition. It counts as physicochemical.
The nature of data set [7]: Photostability of compound in emulsified PBS buffer in presence of […] light irradiation measured upto 10 mins by absorption based assay. It counts as physicochemical.
Data set [8] in a line: Dark toxicity in human HeLa cells incubated for 3 hrs by CCK-8 assay. It counts as cell-based.
Data set [9] concerns HeLa. Kind of data set: Cytotoxicity against human HeLa cells preincubated with compound for 3 hrs followed by 81 J/cm2 light irradiation and measured after 24 hrs by CCK8 assay. It counts as functional, cell-based. Conditions: light or radiation study.
The test system of the next data set is HepG2. Kind of data set: Cytotoxicity against human HepG2 cells preincubated with compound for 3 hrs followed by 81 J/cm2 light irradiation and measured after 24 hrs by CCK8 assay. It counts as functional, cell-based. Conditions: HepG2, light or radiation study.
Data set [10] can be described thus: Ratio of singlet oxygen quantum yield in DMF at pH 5.2 in presence of HCl to singlet oxygen quantum yield in DMF at pH 7. It counts as functional.
The test system of another data set is B16-F10. Kind of data set: Cytotoxicity against mouse B16-F10 cells preincubated with compound for 3 hrs followed by 81 J/cm2 light irradiation and measured after 24 hrs by CCK8 assay. It counts as functional, cell-based. Conditions: B16-F10, light or radiation study.
Data set [11] is described as follows: Photosensitizing ability of the compound in DMF at pH 5.2 assessed as singlet oxygen quantum yield in presence of HCl. It counts as functional.
A short description of data set [12]: Photosensitizing ability of the compound in DMF at pH 7 assessed as singlet oxygen quantum yield. It counts as functional.
Data set [13] is described as follows: Stability of compound in DMF under dark condition. It counts as physicochemical.
Data set [14] can be described thus: Photosensitizing ability of the compound in PBS at pH 7.4 assessed as singlet oxygen production by measuring relative degradation rate of DPBF at 411 nm under photoirradiation with 90 mW/cm2 light by absorbance based assay. It counts as functional.
Data set [15] is described as follows: Toxicity in female BALB/c nude mouse xenografted with human HeLa cells assessed as decrease in body weight at 2 mg/kg, iv preadministered with compound for 3 hrs followed by 54 J/cm2 light irradiation and measured after 10 days. It counts as organism-based. Conditions: in vivo, 240 h, time 10 day. For orientation: Xenograft models place foreign cells or tissue in a host animal.

Data set [16] has as its system HeLa. Kind of data set: Antitumor activity against human HeLa cells xenografted in female BALB/c nude mouse assessed as inhibition of tumor growth at 2 mg/kg, iv preadministered with compound for 3 hrs followed by 54 J/cm2 light irradiation and measured after 24 days. It counts as functional, organism-based. Conditions: time 24.0 day.
A short description of data set [17]: Fluorescence property of compound assessed as quantum yield in CHCl3 by spectroscopic analysis. It counts as physicochemical.
The next data set deals with MRC5. Kind of data set: Cytotoxicity against human MRC5 cells in presence of 16 J/cm^2 light irradiation. It counts as functional, cell-based. As to conditions: MRC5, light or radiation study.
A short description of data set [18]: Toxicity in female BALB/c nude mouse xenografted with human HeLa cells assessed as decrease in body weight at 2 mg/kg, iv preadministered with compound for 3 hrs followed by 54 J/cm2 light irradiation and measured after 24 days. It counts as organism-based. As to conditions: in vivo, 576 h, time 24 day.
A short description of data set [19]: Drug localization in mitochondria of human HeLa cells at 5 uM incubated for 2 hrs by Mito-tracker green dye based confocal scanning microscopic analysis. It counts as ADME.
Data set [20] is described as follows: Drug localization in endoplasmic reticulum of human HeLa cells at 5 uM incubated for 2 hrs by ER-Tracker blue dye based confocal scanning microscopic analysis. It counts as ADME, subcellular.
Data set [21] is described as follows: Drug uptake in human HeLa cells assessed as increase in fluorescence intensity at 5 uM by confocal scanning microscopic analysis. It counts as ADME, cell-based. As to conditions: 5 h, TDE = time-dependent effect.
Data set [22] in a line: Drug uptake in lung of female BALB/c nude mouse xenografted with human HeLa cells at 2 mg/kg, iv measured after 3 hrs by fluorescence imaging analysis. As to conditions: in vivo. It counts as ADME, organism-based.
A short description of data set [23]: Fluorescence property of compound assessed as quantum yield. It counts as physicochemical.
The test system of data set [24] is HeLa. Kind of data set: Antitumor activity against human HeLa cells xenografted in female BALB/c nude mouse assessed as reduction in tumor size at 2 mg/kg, iv preadministered with compound for 3 hrs followed by 54 J/cm2 light irradiation and measured after 24 days relative to control. It counts as functional. On the set-up: scale not given: the % may be the effect or the level left. As to conditions: time 24 day.

Data set [25] is described as follows: Drug localization in endoplasmic reticulum of human HeLa cells at 5 uM incubated for 3 hrs by ER-Tracker blue dye based confocal scanning microscopic analysis. It counts as ADME, subcellular.
Data set [26] is described as follows: Drug uptake in spleen of female BALB/c nude mouse xenografted with human HeLa cells at 2 mg/kg, iv measured after 3 hrs by fluorescence imaging analysis. It counts as ADME, organism-based. Conditions: in vivo.
Data set [27] is described as follows: Drug localization in lysosome of human HeLa cells at 5 uM incubated for 3 hrs by Lyso-tracker blue dye based confocal scanning microscopic analysis. It counts as ADME, subcellular.
A short description of data set [28]: Drug uptake in female BALB/c nude mouse xenografted with human HeLa cells at 2 mg/kg, iv measured after 3 hrs by fluorescence imaging analysis. It counts as ADME, organism-based. As to conditions: in vivo.
The test system of data set [29] is HeLa. The data set is described as follows: Induction of ROS production in human HeLa cells assessed as increase in fluorescence intensity at 20 to 500 nM incubated for 3 hrs in presence of 81 J/cm2 light irradiation by confocal scanning microscopic analysis. It counts as functional, cell-based. As to conditions: dose 20-500 nM.
Data set [30] is described as follows: Drug uptake in liver of female BALB/c nude mouse xenografted with human HeLa cells at 2 mg/kg, iv measured after 3 hrs by fluorescence imaging analysis. It counts as ADME, organism-based. Conditions: in vivo.
Data set [31] can be described thus: Drug localization in mitochondria of human HeLa cells at 5 uM incubated for 3 hrs by Mito-tracker green dye based confocal scanning microscopic analysis. It counts as ADME.
Data set [32] can be described thus: Drug uptake in mouse B16-F10 cells measured after 4 hrs by confocal scanning microscopic analysis. As to conditions: b16-f10, 4 h. It counts as ADME, cell-based.

The source made the active and inactive calls. The rule behind the calls is not given here.

As usually defined, the IC50 is the concentration that inhibits the measured activity by half. Turning to `CCN(CC)Cc1ccc(C2=C(I)C(c3ccc(OC)cc3)=[N+]3C2=Nc2c(-c4ccccc4)c(I)c(-c4ccc(OC)cc4)n2[B-]3(F)F)cc1`, the Activity is 0.98 in [1], 0.74 in [11], 0.58 in data set [12] and 0.87 in [14]. For the same compound, the Stability result in data set [2], in data set [6], in data set [7] and in data set [13] was “Unstable” in each case. Also, the IC50 at 3 h in data set [3] is 49900 nM; in data set [4], 49400 nM; in [8], over 50000 nM. The Ratio came out at 1.13 in [5] and 1.28 in data set [10]. For the same compound, the IC50 in the data set with HeLa [9] is 60.8 nM; in the data set on HepG2 it was 132 nM; in the data set with B16-F10 it was 78.6 nM.
For the compound `C=Cc1c(C)c2cc3nc(c(CC(=O)O)c4[nH]c(cc5nc(cc1[nH]2)C(C)=C5CC)c(C)c4C(=O)O)[C@@H](CCC(=O)O)[C@@H]3C` [CHLORIN E6], the Activity entry in data set [15] was “Toxic”. Besides, the result in the data set on HeLa [16] was Active.
As for `COc1ccc(C2=N/C(=N\c3[nH]c(-c4ccc(OC)cc4)cc3-c3ccccc3)C(c3ccccc3)=C2)cc1`, in data set [17], the Activity is 0.36.
For orientation: EC50 means the concentration that produces a half-maximal response. Take `CCN(CC)Cc1ccc(C2=C(Br)C(c3ccc(OC)cc3)=[N+]3C2=Nc2c(-c4ccc(CN(CC)CC)cc4)c(Br)c(-c4ccc(OC)cc4)n2[B-]3(F)F)cc1`: the Activity in data set [1] was found to be 1.15; in data set [11], 0.65; in data set [12], 0.25; in data set [14] it was 1.06. The Stability entry in [2], in data set [6], in data set [7] and in data set [13] was “Unstable” in each case. In addition, the values for the IC50 at 3 h in data set [3], in data set [4] and in data set [8] were 33100 nM, 23500 nM and 22000 nM, respectively. The Ratio in data set [5] was found to be 1.08; in [10] it was 2.6. Also, the EC50 with MRC5 came out at 5.8 nM. Besides, the results for the IC50 in the data set with HeLa [9], with HepG2 and in the data set on B16-F10 were 44.9 nM, 70.6 nM and 20.8 nM, respectively.
As to `CCN(CC)Cc1ccc(C2=C(I)C(c3ccc(OC)cc3)=[N+]3C2=Nc2c(-c4ccccc4)c4c(n2[B-]3(F)F)-c2ccc(OC)cc2CC4)cc1`, the Activity in data set [1] turned out to be 1.21; in data set [11], 0.51; in data set [12], 0.44; in data set [14], 0.84. Besides, the Stability entry in data set [2], in data set [6], in data set [7] and in data set [13] was “Stable” in each case. Besides, the IC50 at 3 h in data set [3], in [4] and in [8] was over 50000 nM throughout. Moreover, the Ratio in data set [5] amounted to 1.44; in [10], 1.16. In addition, the IC50 amounted to 6.7 nM with HeLa [9], 14.1 nM in the data set with HepG2 and 15 nM with B16-F10.
With `CCN(CC)Cc1ccc(C2=C(I)C(c3ccc(OC)cc3)=[N+]3C2=Nc2c(-c4ccc(CN(CC)CC)cc4)c(I)c(-c4ccc(OC)cc4)n2[B-]3(F)F)cc1`, the Activity was 1.09 in data set [1], 0.75 in data set [11], 0.61 in data set [12] and 0.91 in [14]. The Stability result in data set [2], in [6], in [7] and in data set [13] was “Unstable” throughout. For the same compound, the IC50 at 3 h in [3] was 49600 nM; in data set [4], 28900 nM; in data set [8], 26100 nM. Further, the Ratio in [5] turned out to be 1.2; in data set [10], 1.23. Besides, the IC50 in the data set on HeLa [9] is 51.1 nM; in the data set with HepG2, 73.5 nM; with B16-F10 it was 73.5 nM.
On to `COc1ccc(C2=[N+]3C(=Nc4c(-c5ccccc5)cc(-c5ccc(OC)cc5)n4[B-]3(F)F)C(c3ccccc3)=C2I)cc1`, for which the Activity in data set [1] is 1.19; in [18], “Non-Toxic”; in data set [11], 0.51; in [12], 0.52; in data set [14], 1.18. Further, the IC50 at 3 h in [3], in data set [4] and in data set [8] was over 50000 nM in each case. In addition, the Ratio in data set [5] stood at 1.01; in data set [10], 0.98. Further, the Stability entry in data set [7] was “Stable”. For the same compound, the IC50 in the data set on HeLa [9] was 26.7 nM; with HepG2, 38.6 nM; with B16-F10 it was 155 nM. The Drug uptake entry in [19] and in [20] was “Not Active” throughout. For the same compound, in the data set on HeLa [16], the outcome was Active.
Turning to `CCN(CC)Cc1ccc(C2=C(I)C(c3ccc(OC)cc3)=[N+]3C2=Nc2c(-c4ccc(CN(CC)CC)cc4)cc(-c4ccc(OC)cc4)n2[B-]3(F)F)cc1`, the Activity was 1.45 in [1]; 0.05 in data set [23]; 60% in the data set with HeLa [24]; “Non-Toxic” in data set [18]; 0.65 in data set [11]; 0.44 in data set [12]. Besides, in [14], the Activity turned out to be 1.07. For the same compound, the Stability result in [2], in data set [6], in [7] and in [13] was “Stable” in each case. For the same compound, the Drug uptake entry in [21] was “Tde”; in data set [22], “Active”; in [25], “Not Active”; in data set [26], “Active”; in data set [27], “Active”; in data set [28], “Active”. The Drug uptake entry in data set [30] is “Active”; in data set [31], “Not Active”; in data set [32], “Active”. Moreover, the IC50 at 3 h in [3], in data set [4] and in [8] was over 50000 nM throughout. The values for the Ratio in [5] and in data set [10] were 1.36 and 1.48, respectively. In addition, the IC50 in the data set with HeLa [9] turned out to be 5.3 nM; in the data set with HepG2, 15.1 nM; with B16-F10 it was 7.9 nM. The result in the data set with HeLa [29] and with HeLa [16] was Active.

(Values after ChEMBL document CHEMBL5523681, “Lysosome-targeted Aza-BODIPY photosensitizers for anti-cancer photodynamic therapy” (Bioorg Med Chem, 2024).)
